Reference: paper PMC11212260, “Next-generation neuropeptide Y receptor small-molecule agonists inhibit mosquito-biting behavior” (Parasites & Vectors, 2024)
Several values for one entry are separate records, joined by “and”; a condition that tells them apart may be missing. Equal entries are not always repeated. Where two headings read alike, the source gives them in different places.

Key:
[1] = test system: Aedes aegypti (Orlando strain) females; assay: Host-seeking screening assay (miniport olfactometer); assay type: in vivo; settings: for Attraction (relative to saline): per-compound value of Fig. 3C
Protocol: (§1) Groups of 60–150 females were placed in bucket cages with a diameter of 21.6 cm and height of 16.5 cm (VWR) and fasted with access to water for 24 h prior to feeding. Meals were delivered to females via Glytube membrane feeders as described previously. Meals consisted of 1.5 ml sheep blood (HemoStat Laboratories), saline (400 mM NaHCO3 + dih2O), or saline and test compound. Lyophilized compounds were stored at room temperature until use. High-concentration stocks (30 mM in 100% dimethyl sulfoxide [DMSO]) (Sigma-Aldrich) were stored at −20 °C and diluted in saline immediately prior to feeding. Once prepared, meals and glycerol heating elements were warmed in a 42 °C water bath for 15 min to provide warmth to attract mosquitos to feed. ATP (1 mM final concentration) and test compounds (1 μM final concentration) were added prior to placing the meal on top of the mesh on the cage containing female mosquitos. Females were allowed 15–20 min to feed to repletion. Abdominal engorgement was scored by eye and confirmed by weighing females to ensure full feeding (Data S1). […] Females were returned to their original cage with a diH2O wick for 48 h prior to behavioral testing. The lethality of each compound was measured by counting the number of dead females in each cage 24 h post-meal.
Miniport olfactometers were fabricated in-house as described previously. Information regarding design, construction, and use can be found at https://github.com/VosshallLab/Miniport-Construction. Miniport canisters consisted of a 6″ × 3″ × 3″ acrylic tube with a mesh screen to allow for air flow. Groups of 10–20 females were loaded into canisters 24 h post-meal. Females were left in canisters overnight to acclimate with two cotton balls soaked in diH20 to prevent desiccation. Behavior trials began 48 h post-meal. Canisters were randomly assigned to attraction traps 1–4 and given 5 min to acclimate. The stimulus end of the trap was connected to a flowmeter that supplied 5% CO2 at a rate of 30 ml/min. Thirty seconds of CO2 flow was supplied to activate females prior to opening the sliding door. Once opened, the sliding door gave females access to the attraction trap baited with a human-scented nylon stocking previously worn by the same experimenter for 8–10 h to collect body odor and stored in a plastic bag at −20 °C until use. After 5 min, the sliding door was closed and attraction was scored as mosquitoes in the attraction trap/total number of mosquitoes. For each experiment data were normalized to the matched average saline attraction from the same experiment (% attracted/average saline attraction). Any dead mosquitoes were excluded from the analysis. Non-fed females and blood-fed females served as environmental control groups while the saline-fed females served as the vehicle control each day. If non-fed or saline-fed females were less than 50% attracted or if blood-fed females were more than 20% attracted behavioral trials were halted and all data from that experimental day were discarded.

[2] = test system: Aedes aegypti (Orlando strain) females; assay: Glytube feeding: females feeding to repletion and weight per female (meal palatability); assay type: in vivo; settings: Supplemental Figure 1 Panel A; compounds of Fig 3; individual replicate values
Protocol: as §1
Supplementary file 13071_2024_6347_MOESM1_ESM.png: Supplementary Material 1: Figure 1. […] (A) Percent of females feeding to repletion and (B) weight per female after feeding on the indicated meal used for testing in Miniport olfactometer experiments in Figure 3B. (C) Percent of females feeding to repletion and (D) weight per female after feeding on the indicated meal used for testing in live host assays in Figure 4. Data are shown as mean with standard deviation. n = 2–22 replicate cages, 60–150 females/cage. Females were weighed in groups of five to ensure reliable readings. Kruskal–Wallis with Dunn’s multiple comparisons to saline-fed group, ns P > 0.01, * P < 0.01, *** P < 0.0001. (PNG 321 KB)

Ae. aegypti NPYLR7 = Ae. aegypti NPYLR7 (Aedes aegypti, UniProt U5N1H5); assay: In vitro calcium (GCaMP6s) FLIPR assay in HEK293T cells transfected with NPYLR7; assay type: cell-based; settings: for in vitro potency (in words): relative to reference compound TDI-012631; for activation at 100 µM: single replicate of the dose-response curve
Ae. aegypti NPYLR7, sequence (U5N1H5 entry or part of it): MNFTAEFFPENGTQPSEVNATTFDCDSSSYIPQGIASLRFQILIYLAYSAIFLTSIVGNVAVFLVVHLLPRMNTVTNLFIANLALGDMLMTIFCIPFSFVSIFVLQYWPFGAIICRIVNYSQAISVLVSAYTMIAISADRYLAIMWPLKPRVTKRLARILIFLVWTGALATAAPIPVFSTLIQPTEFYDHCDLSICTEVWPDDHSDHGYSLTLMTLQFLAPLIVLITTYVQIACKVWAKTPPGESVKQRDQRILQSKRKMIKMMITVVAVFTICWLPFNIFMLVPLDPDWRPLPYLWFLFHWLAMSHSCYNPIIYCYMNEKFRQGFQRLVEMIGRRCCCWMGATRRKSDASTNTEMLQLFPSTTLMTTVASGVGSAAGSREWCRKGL
Method in brief: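 HEK293T cells transiently co-transfected with GCaMP6s, mouse Gqα15 and NPYLR7; FLIPR imaging every second for 5 min, compound (0–100 μM) added after 30 s baseline in HBSS + 20 mM HEPES. Response normalized to buffer (0%) and 10 μM FMRFa3 (100%); relative EC50 by four-parameter fit, replicates averaged.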

[3] = test system: Aedes aegypti (Orlando strain) females; assay: Biting assay (mouse-in-cage); assay type: in vivo; parameters: key to Difference between medians: Actual (vs. saline) / Difference between medians: Hodges-Lehmann (vs. saline): differences in percent biting (blood-fed/total females, %); settings: for Difference between medians: Actual (vs. saline) / Difference between medians: Hodges-Lehmann (vs. saline) / Median (percent freshly blood-fed) / Significantly different (P < 0.05)? vs. saline: fed 1 μM; for Percentage of females that freshly blood-fed on an anesthetized mouse: fed 1 μM 48 h prior, 15 min exposure, individual replicates; for effect on biting / blood-feeding from a live host (in words): fed at a dose of 1 μM
Protocol: as §1, with “ATP (1 mM final concentration) and test compounds (1 μM final concentration) were added prior to placing the meal on top of the mesh on the cage containing female mosquitos.” left out
This assay was modified from. Females were fed and scored as described above. Forty-eight hours post-meal, females were anesthetized in a 4 °C cold room and aspirated into a petri dish (Thermo Fisher Biosciences) with a randomly assigned color powder (Slice of the Moon; Chameleon Colors) to mark their treatment group. Females were then individually removed from the color powder, placed inside a cage measuring 91 cm × 61 cm × 61 cm (BugDorm), and allowed 2–4 h to recover. Each experiment consisted of a cage with 12–20 females in each treatment group including environmental (non-fed and blood-fed) and vehicle (saline-fed) control groups. The experiment began once an anesthetized mouse was introduced to the center of the cage, and females were allowed 15 min to blood-feed. The mouse was then removed, and the cage was placed at 4 °C to anesthetize females for collection. Females were aspirated into a large glass petri dish (Pyrex) and scored under a dissection microscope (Nikon SMZ1500) for powder color and blood-feeding status. Females were scored as blood-fed if fresh blood was present in the abdomen. Percent biting was calculated as females freshly blood-fed/total females in each respective treatment group.

[4] = fed 1 μM in saline, tested 48 h post-meal
[5] = relative EC50, percent effect relative to 10 μM FMRFa3, read-out: EC50
[6] = EC50 of the individual assay date/plate (assay date), read-out: EC50
[7] = Figure 1E Summary, third list (n = 39), read-out: Reported Metric (Summary list)
[8] = HEK-293T, 11.1111 uM, single replicate, normalised response
[9] = HEK-293T, 33.3333 uM, single replicate, normalised response
[10] = summary EC50 per compound (mean over assay dates), the unit is taken from the neighbouring EC50 (uM) column, read-out: Reported Metric
[11] = Figure 1E Summary, second list (n = 48), read-out: Reported Metric (Summary list)
[12] = sheet Figure 3C, unit inferred, read-out: EC50
[13] = HEK-293T, single replicate, normalised response

| Structure (SMILES) | Attraction (relative to saline) [1, 4] | % feeding (females feeding to repletion) [2] | EC50 (Ae. aegypti NPYLR7; [5]) | in vitro potency (in words) (Ae. aegypti NPYLR7) | EC50 (Ae. aegypti NPYLR7; [6]) | EC50 (Ae. aegypti NPYLR7; [7]) | activation at 11.1111 µM (Ae. aegypti NPYLR7; [8]) | activation at 33.3333 µM (Ae. aegypti NPYLR7; [9]) | activation at 100 µM (Ae. aegypti NPYLR7; HEK-293T, normalised response) | EC50 (Ae. aegypti NPYLR7; [10]) | EC50 (Ae. aegypti NPYLR7; [12]) | also measured |
| --- | --- | --- | --- | --- | --- | --- | --- | --- | --- | --- | --- | --- |
| COc1ccc2nc(N)nc(C)c2c1 [TDI-012610] | 0.99 | 89.86% | > 100 µM | loss of potency | – | – | – | – | – | – | – | Reported Metric (Summary list) (Ae. aegypti NPYLR7; Figure 1E Summary, first list: low sensitivity or >100 (n = 41)): low sensitivity; EC50 (uM) (Ae. aegypti NPYLR7; Figure 1E, EC50 of the single assay date/plate): low sensitivity; Reported Metric (EC50) (Ae. aegypti NPYLR7; Figure 1E, metric reported per compound, repeated on every replicate line): low sensitivity; activation at 3.7037 µM (Ae. aegypti NPYLR7; HEK-293T, compound 3.7037 uM, single replicate well, read-out: response at 3.7037): 9.1%; activation at 11.1111 µM (Ae. aegypti NPYLR7; HEK-293T, compound 11.1111 uM, single replicate well, read-out: response at 11.1111): 4.96%; activation at 33.3333 µM (Ae. aegypti NPYLR7; HEK-293T, compound 33.3333 uM, single replicate well, read-out: response at 33.3333): 1.85% |
| Cc1nc(NC(=N)N)nc2cc(OCc3ccc(OC(F)F)cc3)ccc12 [TDI-014170] | 0.91 | – | 1.63 µM | high in vitro potency | 1.63 µM | 1.63 µM | 80.9% | 99.8% | 128% | 1.63 µM | – | Difference between medians: Actual (vs. saline) [3]: -19.9; Difference between medians: Hodges-Lehmann (vs. saline) [3]: -11; Median (percent freshly blood-fed) [3]: 59.60, n=9%; Significantly different (P < 0.05)? vs. saline [3]: No; Percentage of females that freshly blood-fed on an anesthetized mouse ([3]; listed as TDI-04170): 44% and 57% and 85% and 74% and 53% and 82% and 55% and 62%; effect on biting / blood-feeding from a live host (in words) [3]: nor did it significantly reduce biting; effect on host-seeking (in words) ([1]; fed at a dose of 1 μM): did not reduce host-seeking |
| CCOc1ccc(COc2ccc3c(C)nc(NC(=N)N)nc3c2)cc1 [TDI-014176] | 0.74 | 58.02% | 6.35 µM | – | 6.35 µM | – | 88% | 131% | 133% | 6.35 µM | 6.35 µM | EC50 (Ae. aegypti NPYLR7; [11]): 6.35 µM; activation at 0.0017 µM (Ae. aegypti NPYLR7; HEK-293T, 0.0017 uM, single replicate, normalised response): 4.15%; activation at 0.0051 µM (Ae. aegypti NPYLR7; HEK-293T, 0.0051 uM, single replicate, normalised response): 3.37% |
| CCCOc1ccc2c(C)nc(NC(=N)N)nc2c1 [TDI-014178] | 0.93 | 49.19% | 2.25 µM | – | 2.25 µM | 2.25 µM | 86.6% | 96.4% | 100% | 2.25 µM | 2.25 µM | Host-seeking relative to saline (test compound % host-seeking/average matched saline % host-seeking) ([1]; fed 1 μM in saline, tested 48 h post-meal, individual replicates, listed as TDI-04178): 0.93 and 1; activation at 1.2346 µM (Ae. aegypti NPYLR7; [13]): 42.7%; activation at 3.7037 µM (Ae. aegypti NPYLR7; HEK-293T, 3.7037 uM, single replicate, normalised response): 66.7% |
| CNc1nc(NC(=N)N)nc2cc(OCC3CCOCC3)ccc12 [TDI-014188] | 0.895 | – | 0.0602 µM | significantly improved in vitro potency | – | – | – | – | – | – | – | Difference between medians: Actual (vs. saline) [3]: -21.9; Difference between medians: Hodges-Lehmann (vs. saline) [3]: -21; Median (percent freshly blood-fed) [3]: 50.00, n=11%; Significantly different (P < 0.05)? vs. saline [3]: Yes; Percentage of females that freshly blood-fed on an anesthetized mouse ([3]; listed as TDI-04188): 17% and 78% and 72% and 33% and 47% and 67% and 53%; effect on biting / blood-feeding from a live host (in words) [3]: reduced biting behavior |
| CNc1nc(NC(=N)N)nc2cc(OCc3ccc(OC)cc3)ccc12 [TDI-014190] | 0.805 | – | 0.0181 µM | – | 0.0181 µM | 0.0181 µM | 69.9% | 92.1% | 91.9% | 0.0181 µM | 0.0181 µM | activation at 0.1372 µM (Ae. aegypti NPYLR7; HEK-293T, 0.1372 uM, single replicate, normalised response): 46.8%; activation at 1.2346 µM (Ae. aegypti NPYLR7; [13]): 77.5% |
| Cc1nc(NC(=N)N)nc2cc(OCC3CCCCO3)ccc12 (stereo not shown) [TDI-014192] | 1.035 | – | 5.76 µM | – | 5.76 µM | – | 55.1% | – | 67.4% | 5.76 µM | 5.76 µM | EC50 (Ae. aegypti NPYLR7; [11]): 5.76 µM |
